What all share (assay type): functional, cell-based
Test [1] deals with A549. As to the kind of experiment: Antiproliferative activity against human A549 cells assessed as inhibition of cell growth incubated for 72 hrs by SRB assay. The note with it: A549, 72 h. In general terms: In SRB staining, fixed cells bind dye roughly in proportion to their protein.
Test [2] has as its system MCF7. As to the kind of experiment: Antiproliferative activity against human MCF7 cells assessed as inhibition of cell growth incubated for 72 hrs by SRB assay. The note with it: MCF7, 72 h.
Test [3] concerns K562. The test is described as follows: Antiproliferative activity against human K562 cells assessed as inhibition of cell growth by MTT assay. (Tetrazolium dyes change colour on reduction, which living cells bring about.)
For test [4], the system named is A549. The test is described as follows: Antiproliferative activity against human A549 cells assessed as inhibition of cell growth by MTT assay.
Test [5] concerns MCF7. The test is described as follows: Antiproliferative activity against human MCF7 cells assessed as inhibition of cell growth incubated for 48 hrs by MTT assay. The following applies: MCF7, 48 h.
The test system of test [6] is SW480. As to the kind of experiment: Antiproliferative activity against human SW480 cells assessed as inhibition of cell growth incubated for 48 hrs by MTT assay. The note with it: SW480, 48 h.
In test [7] the test system is A549. The test is described as follows: Antiproliferative activity against human A549 cells assessed as inhibition of cell growth incubated for 48 hrs by MTT assay. The following applies: A549, 48 h.
Test [8] has as its system HL-60. As to the kind of experiment: Antiproliferative activity against human HL-60 cells assessed as inhibition of cell growth incubated for 48 hrs by MTT assay. The following applies: HL-60, 48 h.
Test [9] concerns SMMC-7721. As to the kind of experiment: Antiproliferative activity against human SMMC-7721 cells assessed as inhibition of cell growth incubated for 48 hrs by MTT assay. The note with it: SMMC-7721, 48 h.
Test [10] has as its system SMMC-7721. The test is described as follows: Antiproliferative activity against human SMMC-7721 cells assessed as inhibition of cell growth incubated for 48 hrs by MTS assay. The following applies: SMMC-7721, 48 h.
The subject of test [11] is AGS. As to the kind of experiment: Antiproliferative activity against human AGS cells assessed as inhibition of cell growth incubated for 24 hrs by MTT assay.
The test system of test [12] is L1210. As to the kind of experiment: Antiproliferative activity against mouse L1210 cells assessed as inhibition of cell growth incubated for 24 hrs by MTT assay. The following applies: L1210, 24 h.

The structures appear in SMILES notation. Values after ≈ are worked out from the molar mass of the structure shown.

As a reminder, the IC50 is the point on the concentration scale where inhibition reaches its midpoint.

Turning to `C/C=C1/CN(C)[C@H]2Cc3c([nH]c4ccccc34)[C@H](c3ccc4[nH]c5c(c4c3)CCN3[C@H]4[C@@H](CC)C[C@H](C[C@@]54C(=O)OC)[C@@H]3CC(C)=O)C[C@H]1[C@@H]2C(=O)OC`, the half-maximal inhibitory concentration (IC50) in test [1] and in test [2] was below 10 µM throughout.

For `CC[C@@H]1CN(C)[C@H]2Cc3c([nH]c4ccccc34)[C@H](c3cc4[nH]c5c(c4cc3OC)CCN3C[C@H]4C[C@H](CC)[C@H]3[C@@]5(C(=O)OC)C4)C[C@H]1[C@@H]2C(=O)OC`, the IC50 in test [1] and in test [2] was below 10 µM each time.

`CO[C@@]1(C(=O)c2c[nH]c3ccccc23)N=C(c2c[nH]c3ccccc23)C(=O)N1`: the half-inhibitory concentration (IC50) in test [3] and in test [4] was 24.2 µM in each case.

As for `CC[C@]12C=CCN3CCc4c(n(c5ccccc45)[C@@H](c4cc5c(cc4OC)NC4=C(C(=O)OC)C[C@]6([C@@H](C)OC(C)=O)CCCN7CC[C@@]45[C@@H]76)C1)[C@@H]32`, the IC50 in test [5], in test [6], in test [7], in test [8] and in test [9] was 3.24 µM in each case.

As to `CO[C@@]1(C(=O)c2c[nH]c3ccccc23)N=C(c2c[nH]c3cc(Br)ccc23)C(=O)N1`, the IC50 in test [3] and in test [4] was 24.2 µM in each case.

In the case of `CC[C@]12CCCN3CCc4c(n(c5ccccc45)[C@@H](c4cc5c(cc4OC)NC4=C(C(=O)OC)C[C@]6(CC)CCCN7CC[C@@]45[C@@H]76)C1)[C@@H]32`, the half-maximal inhibitory concentration (IC50) in [5], in [6], in test [7], in test [8] and in [9] was 3.24 µM throughout.

For `C/C=C1\CN(C)[C@H]2Cc3c([nH]c4ccccc34)[C@H](c3c(OC)ccc4c5c([nH]c34)[C@]3(C(=O)OC)C[C@@H]4C[C@H](CC)[C@@H]3N(CC5)[C@@H]4CC(C)=O)C[C@H]1[C@@H]2C(=O)OC`, the half-maximal inhibitory concentration (IC50) in test [1] and in [2] was below 10 µM throughout.

With `C/C=C1/CN(C)[C@@]2(C)Cc3c([nH]c4ccccc34)[C@H](c3c(OC)ccc4c3NC3[C@@]4(O)CCN4C[C@H]5C[C@H](CC)[C@H]4[C@@]3(C(=O)OC)C5)C[C@H]1[C@]2(COC(C)=O)C(=O)OC` (stereo partly specified), the IC50 in [5], in [6], in test [7], in test [8] and in test [9] was 2.9 µM throughout.

On to `CC[C@@H]1CN(C)[C@H]2Cc3c([nH]c4ccccc34)[C@H](c3ccc4[nH]c5c(c4c3)CCN3[C@H](CC(C)=O)[C@@H]4C[C@@H](CC)[C@H]3[C@]5(C(=O)OC)C4)C[C@H]1[C@@H]2C(=O)OC`, for which the IC50 in [1] and in test [2] was 10.9 µM throughout.

Regarding `CC[C@]12C=CCN3CCc4c(n(c5cc(OC)ccc45)[C@@H](c4cc5c(cc4OC)NC4=C(C(=O)OC)C[C@]6(CC)CCCN7CC[C@@]45[C@@H]76)C1)[C@@H]32`, the concentration for half-maximal inhibition (IC50) in [5], in test [6], in test [7], in test [8] and in test [9] was 3.24 µM throughout.

For the compound `CC[C@@H]1CN(C)[C@H]2Cc3c([nH]c4ccccc34)[C@H](c3ccc4c5c([nH]c4c3)[C@@H]3C[C@@H]4C[C@H](CC)[C@@H]3N(CC5)[C@@H]4CC(C)=O)C[C@H]1[C@@H]2C(=O)OC`, the IC50 in test [1] and in [2] was below 10 µM in each case.

Take `C/C=C1\CN(C)[C@H]2Cc3c([nH]c4ccccc34)[C@H](c3c(OC)ccc4c5c([nH]c34)[C@]3(C(=O)OC)C[C@@H]4C[C@H](CC)[C@@H]3N(CC5)C4)C[C@H]1[C@@H]2C(=O)OC`: the IC50 in [1] and in test [2] was below 10 µM in each case.

`CO[C@@]1(C(=O)c2c[nH]c3cc(O)ccc23)N=C(c2c[nH]c3ccccc23)C(=O)N1`: the concentration for half-maximal inhibition (IC50) in [3] and in test [4] was 24.2 µM throughout.

As for `CC[C@@H]1CN(C)[C@H]2Cc3c([nH]c4ccccc34)[C@H](c3cc4c5c([nH]c4cc3OC)[C@@]3(C(=O)OC)C[C@H]4C[C@@H](CC)[C@@H]3N(CC5)C4)C[C@H]1[C@@H]2C(=O)OC`, the IC50 was above 10 µM in test [1] and below 10 µM in [2].

Take `CC[C@@H]1CN(C)[C@H]2Cc3c([nH]c4ccccc34)[C@H](c3ccc4[nH]c5c(c4c3)CCN3C[C@@H]4C[C@@H](CC)[C@H]3[C@@H]5C4)C[C@H]1[C@@H]2C(=O)OC`: the half-maximal inhibitory concentration (IC50) in test [1] and in test [2] was below 10 µM throughout.

Consider `CC[C@]12C=CCN3CC[C@]4(C(=C(C(=O)OC)C1)Nc1cc5c(cc14)[C@@H]1[C@H](O5)[C@@H](O)[C@@]4(CC)C=C(C(=O)OC)C5Nc6c(ccc(OC)c6O)[C@@]56CCN1[C@@H]46)[C@@H]32` (stereo partly specified), for which the IC50 in test [10] was determined as 1.72 µM.

Turning to `CC[C@@H]1CN(C)[C@H]2Cc3c([nH]c4ccccc34)[C@H](c3c(OC)ccc4c5c([nH]c34)[C@]3(C(=O)OC)C[C@@H]4C[C@H](CC)[C@@H]3N(CC5)[C@@H]4CC(C)=O)C[C@H]1[C@@H]2C(=O)OC`, the IC50 in test [1] and in test [2] was 10.9 µM each time.

With `CC[C@]12C=CCN3CC[C@]4(C(=C(C(=O)OC)C1)Nc1cc(OC)c([C@@H]5[C@H]6O[C@H]6[C@@]6(CC)C=C(C(=O)OC)C7Nc8c(cc(O)c(OC)c8OC)[C@@]78CCN5[C@@H]68)cc14)[C@@H]32` (stereo partly specified), the IC50 in test [10] worked out at 2.01 µM.

For the compound `C/C=C1/CN(C)[C@H]2Cc3c([nH]c4ccccc34)[C@H](c3ccc4[nH]c5c(c4c3)CCN3C[C@@H]4C[C@H](CC)[C@H]3[C@@H]5C4)C[C@H]1[C@@H]2C(=O)OC`, the IC50 in test [1] and in test [2] was below 10 µM in each case.

Consider `CC(=O)C[C@@H]1c2c([nH]c3ccccc23)[C@H](c2c[nH]c3ccccc23)[C@H]1C(C)=O`, for which, in [3], the IC50 was 2.2 µM.

`O=C(c1nc(-c2c[nH]c3cc(Br)ccc23)c[nH]1)c1c[nH]c2cc(O)ccc12` [BROMOTOPSENTIN]: the concentration for half-maximal inhibition (IC50) in test [11] and in test [12] was 1.1 µg/mL (≈ 2.61 µM) each time.

For `CC[C@@H]1CN(C)[C@H]2Cc3c([nH]c4ccccc34)[C@H](c3ccc4c5c([nH]c4c3)[C@]3(C(=O)OC)C[C@@H]4C[C@H](CC)[C@@H]3N(CC5)[C@@H]4CCOC)C[C@H]1[C@@H]2C(=O)OC`, the values for the IC50 in test [1] and in test [2] were 1.19 µM and 2.25 µM, respectively.

Turning to `CC[C@@H]1CN(C)[C@H]2Cc3c([nH]c4ccccc34)[C@H](c3cc4[nH]c5c(c4cc3OC)CCN3[C@H](CC(C)=O)[C@H]4C[C@H](CC)[C@H]3[C@@]5(C(=O)OC)C4)C[C@H]1[C@@H]2C(=O)OC`, the 50% inhibitory concentration (IC50) is above 10 µM in test [1] and below 10 µM in test [2].

As to `O=C1N[C@H](c2c[nH]c3ccccc23)CN=C1c1c[nH]c2cc(Br)ccc12`, the half-maximal inhibitory concentration (IC50) in [11] and in test [12] was 1.1 µg/mL (≈ 2.7 µM) each time.

`C/C=C1/CN2COC[C@]3(C(=O)OC)[C@@H]1C[C@@H](c1cccc4c5c([nH]c14)[C@]1(C(=O)OC)C[C@@H]4C[C@H](CC)[C@@H]1N(CC5)[C@@H]4CC(C)=O)c1[nH]c4ccccc4c1C[C@]23C`: the concentration for half-maximal inhibition (IC50) in test [5], in [6], in test [7], in test [8] and in [9] was 2.9 µM throughout.

On to `CC[C@@H]1CN(C)[C@H]2Cc3c([nH]c4ccccc34)[C@H](c3ccc4c5c([nH]c4c3)[C@]3(C(=O)OC)C[C@@H]4C[C@H](CC)[C@@H]3N(CC5)C4)C[C@@H]1[C@@H]2C(=O)OC`, for which the results for the half-maximal inhibitory concentration (IC50) in test [1] and in test [2] were above 10 µM and below 10 µM, respectively.

`C/C=C1/CN2COC[C@]3(C(=O)OC)[C@@H]1C[C@@H](c1c(OC)ccc4c1NC1[C@@]4(O)CCN4C[C@H]5C[C@H](CC)[C@H]4[C@@]1(C(=O)OC)C5)c1[nH]c4ccccc4c1C[C@]23C` (stereo partly specified): the IC50 in test [5] came to 4.7 µM; in test [6] it was 10.3 µM; in [7] it was 10.3 µM; in test [8], 10.3 µM; in test [9] it was 10.3 µM.

For the compound `O=C1N[C@H](c2c[nH]c3cc(Br)ccc23)CN[C@H]1c1c[nH]c2cc(Br)ccc12`, the IC50 in test [11] and in test [12] was 1.1 µg/mL (≈ 2.25 µM) each time.

As to `O=C1NC[C@H](c2c[nH]c3cc(Br)ccc23)N=C1c1c[nH]c2cc(Br)ccc12` [HAMACANTHIN B], the half-inhibitory concentration (IC50) in test [11] and in [12] was 1.1 µg/mL (≈ 2.26 µM) throughout.

On to `C/C=C1\CN(C)[C@H]2Cc3c([nH]c4ccccc34)[C@H](c3cc4[nH]c5c(c4cc3OC)CCN3C[C@H]4C[C@H](CC)[C@H]3[C@H]5C4)C[C@H]1[C@@H]2C(=O)OC`, for which the IC50 in test [1] and in test [2] was below 10 µM in each case.

Turning to `O=C(NCC(=O)c1c[nH]c2ccccc12)NC(=O)c1c[nH]c2cc(O)ccc12`, the half-maximal inhibitory concentration (IC50) in test [3] and in test [4] was above 90 µM in each case.

Turning to `O=C(NCC(=O)c1c[nH]c2cc(Br)ccc12)NC(=O)c1c[nH]c2cc(O)ccc12`, the IC50 in test [3] and in test [4] was above 90 µM each time.

Regarding `CO[C@@]1(C(=O)c2c[nH]c3cc(O)ccc23)N=C(c2c[nH]c3cc(Br)ccc23)C(=O)N1`, the IC50 in [3] and in test [4] was 24.2 µM each time.

Source of the values: ChEMBL document CHEMBL5331060, “Bisindole natural products: A vital source for the development of new anticancer drugs” (Eur J Med Chem, 2022).
